# Experimental data taken from patent publication US20140366440A1, “METHOD FOR PRODUCING CLONE SEEDLINGS” (OKAYAMA PREFECTURE, priority 2009, published 2014).
# Assays:
# E. uro-grandis A = assay: Rooting of cuttings, oxidized glutathione solution sprayed to supporter; format: in vivo, crossbreed of eucalyptus urophylla and eucalyptus grandis; details: three weeks
# Description: A crossbreed of eucalyptus urophylla and eucalyptus grandis (hereinafter, abbreviated as an “E. uro-grandis”) (Line name: A) was used as a material of a cutting. Specifically, a graft grown to have a length of about 5 cm to 20 cm, about one to three joints, and about two to six leaves was cut out from a mother tree, and a tip of each leaf was cut off by cutting off about a half from the tip thereof. In this way, the cutting was prepared.
# A composite soil of carbonized chaff, coconut fiber, and vermiculite which had been put into a seedling pot (3 cm in inner diameter×15 cm in height) in advance was used as a supporter. Oxidized glutathione was dissolved in water so that an oxidized glutathione concentration became 50 mg/L. The oxidized glutathione solution was thus prepared. The oxidized glutathione solution was sprayed to the seedling pot from the above by use of a watering can so that the supporter was soaked with the oxidized glutathione solution (50 mg/L) by spraying a spray amount of water of about 8.5 ml of the oxidized glutathione solution per seedling pot. Thereafter, a base of the cutting was planted to the supporter. After this planting, the cutting was bred for three weeks in a green house which shielded sunlight by 50%. In the green house, a high humidity (80% or more) was kept by frequently spraying mist. After three weeks from the planting, a rooting ratio was calculated from the number of rooted cuttings.
# A seedling was bred in the same way as Example 4, except that a solution having an oxidized glutathione concentration of 200 mg/L was used as the oxidized glutathione solution.
# A seedling was bred in the same way as Example 4, except that a solution having an oxidized glutathione concentration of 500 mg/L was used as the oxidized glutathione solution.
# A seedling was bred in the same way as Example 4, except that a solution having an oxidized glutathione concentration of 1000 mg/L was used as the oxidized glutathione solution.
# E. globulus (Clone B) = assay: Rooting of shoots with wounded base in rooting medium containing oxidized glutathione; format: in vivo, Eucalyptus globulus; details: for Rooting rate (%): 9 test pieces; for Number of rooted shoots: of 9 test pieces
# Description: (§1) A base of the shoot thus obtained was planted to a foaming phenolic resin porous supporter (Manufactured by Smithers-Oasis Company; Product name: Oasis). […] The base of the shoot was cultured for two months in carbon dioxide gas of 1000 ppm at a temperature of 25° C. under irradiation of red light having photosynthesis photon flux density of 51.3 μmol/m^2/S and having a wavelength component of 650 nm to 670 nm to a wavelength component of 450 nm to 470 nm at a ratio of 8.2:1.8. The culturing was carried out with a culture container, which was a cube container (maximum size of about 10 cm to 11.5 cm in length×10 cm to 11.5 cm in width×10.0 cm in height) having a shape whose bulge was slightly protruded. […] Carbon dioxide gas outside the culture container was allowed to enter the culture container through this carbon dioxide gas permeable membrane covering the opening. Accordingly, carbon dioxide gas concentration inside the culture container was about 1000 ppm due to the permeation of the carbon dioxide gas through the film covering the opening of the culture container. The culture container was irradiated with red light by use of a light irradiation device (Product name: CCFL unit, maker's name: Nippon Medical& Chemical Instruments CO., LTD.). Further, humidity in the culture container is adjusted by sealing the culture container with Parafilm.
# (§2) Nine shoots were planted per culture container. A rooting rate was calculated from the number of test pieces of the shoot and the number of shoots (the number of rooted shoots) which had been rooted after the foliage was cultured for two months.
# The culture was carried out in the same way as Example 1, except that genetically modified E. globulus (Line name: Clone B) was used and a base of the shoot was wounded by a pair of scissors. Note that the base of the shoot (the aforementioned cross-sectional surface) was cut in two directions orthogonal to each other by use of a pair of scissors, and therefore the base was wounded so as to have a cross-shaped wound seen from a front direction.
# E. globulus (Clone G) = assay: Rooting of shoots with wounded base, line whose rooting is extremely difficult; format: in vivo, Eucalyptus globulus; details: Example 20: 50 mg/L in medium
# Description: as §1, §2
# E. globulus (Clone H) = assay: as above; format: in vivo, Eucalyptus globulus; details: Example 21: 50 mg/L in medium
# Description: as §1, §2
# E. globulus (Clone I) = assay: as above; format: in vivo, Eucalyptus globulus; details: Example 22: 50 mg/L in medium
# Description: as §1, §2
# [1] = tested on: E. globulus (wild-type F); assay: Rooting of shoots with wounded base in rooting medium containing oxidized glutathione; format: in vivo, Eucalyptus globulus; details: Example 19: 50 mg/L in medium
# Description: as §1, §2
# E. globulus (Clone E) = assay: as above; format: in vivo, Eucalyptus globulus; details: Example 18: 50 mg/L in medium
# Description: as §1, §2
# E. globulus (Clone D) = assay: as above; format: in vivo, Eucalyptus globulus; details: Example 17: 50 mg/L in medium
# Description: as §1, §2
# [2] = tested on: E. globulus wild-type (tissue culture); assay: Rooting of tissue-culture shoots planted to supporter infiltrated with rooting medium containing oxidized glutathione; format: in vivo, Eucalyptus globulus; details: for Rooting rate (%): 27 test pieces; for Number of rooted shoots: of 27 test pieces
# Excerpt: A foliage (shoot) grown to have a length of 2 cm to 5 cm was cut from a multiple shoot induced from a wild-type Eucalyptus globulus (hereinafter, abbreviated simply as an “E. globulus”). Inducing the multiple shoot followed a method described in Japanese Patent Application Publication, Tokukaihei, No. 8-228621 A. Specifically, a tissue (terminal bud and axillary bud) was collected from E. globulus (wild type), and the tissue thus collected was subjected to surface disinfection by immersing the tissue for twenty minutes in an sodium hypochlorite aqueous solution containing an amount of available chlorine of 1%. Then, the tissue which had been subjected to the surface disinfection was washed by sterilized water and was planted to a solid medium (MS medium containing sucrose of […], BA of 0.2 mg/L, and gellan gum of […]), and its bud was opened. Within three and four weeks after the culturing of the foliage was started, the culturing of the foliage was subcultured in a medium having a composition identical with that described above. […] Note that the foliages from the multiple shoot was grown in a medium having the composition identical with that used for forming the multiple shoot under the condition identical with that used for forming the multiple shoot.
# as §1, §2
# [3] = Example 2: 50 mg/L in medium, two months
# [4] = Example 3: 75 mg/L in medium, two months
substance,measurement,setting,value
oxidized glutathione,Rooting rate (%),"E. uro-grandis A; Example 4: 50 mg/L solution, spraying to supporter (about 8.5 ml per pot), 44 test pieces",75.0%
same,Number of rooted shoots,"E. uro-grandis A; Example 4: 50 mg/L, spraying to supporter, of 44 test pieces",33
same,Rooting rate (%),"E. uro-grandis A; Example 5: 200 mg/L, spraying to supporter, 44 test pieces",77.3%
same,Number of rooted shoots,"E. uro-grandis A; Example 5: 200 mg/L, spraying to supporter, of 44 test pieces",34
same,Rooting rate (%),"E. uro-grandis A; Example 6: 500 mg/L, spraying to supporter, 44 test pieces",84.1%
same,Number of rooted shoots,"E. uro-grandis A; Example 6: 500 mg/L, spraying to supporter, of 44 test pieces",37
same,Rooting rate (%),"E. uro-grandis A; Example 7: 1000 mg/L, spraying to supporter, 176 test pieces",72.7%
same,Number of rooted shoots,"E. uro-grandis A; Example 7: 1000 mg/L, spraying to supporter, of 176 test pieces",128
same,Rooting rate (%),E. globulus (Clone B); Example 14: 25 mg/L in medium,88.9%
same,Number of rooted shoots,E. globulus (Clone B); Example 14: 25 mg/L in medium,8
same,Rooting rate (%),E. globulus (Clone B); Example 15: 75 mg/L in medium,77.8%
same,Number of rooted shoots,E. globulus (Clone B); Example 15: 75 mg/L in medium,7
same,Rooting rate (%),E. globulus (Clone G); 18 test pieces,33.3%
same,Number of rooted shoots,E. globulus (Clone G); of 18 test pieces,6
same,Rooting rate (%),E. globulus (Clone H); 5 test pieces,40.0%
same,Number of rooted shoots,E. globulus (Clone H); of 5 test pieces,2
same,Rooting rate (%),E. globulus (Clone I); 5 test pieces,20.0%
same,Number of rooted shoots,E. globulus (Clone I); of 5 test pieces,1
same,Rooting rate (%),[1]; 18 test pieces,100.0%
same,Number of rooted shoots,[1]; of 18 test pieces,18
same,Rooting rate (%),E. globulus (Clone E); 27 test pieces,88.9%
same,Number of rooted shoots,E. globulus (Clone E); of 27 test pieces,24
same,Rooting rate (%),E. globulus (Clone D); 18 test pieces,88.9%
same,Number of rooted shoots,E. globulus (Clone D); of 18 test pieces,16
same,Rooting rate (%),"[2]; Example 1: 25 mg/L in medium, adding glutathione to rooting medium (with STS, ascorbic acid, IBA), cultured two months",74.1%
same,Number of rooted shoots,"[2]; Example 1: 25 mg/L in medium, two months",20
same,Rooting rate (%),[2]; [3],85.2%
same,Number of rooted shoots,[2]; [3],23
same,Rooting rate (%),[2]; [4],51.9%
same,Number of rooted shoots,[2]; [4],14
